Measurements reported in patent US9914730B2, “Azaquinazoline inhibitors of Atypical protein Kinase C” (Ignyta, Inc., priority 2012, dated 2018).
pIC50: −log10 of the molar value.

Each compound was assayed against T1, full-length human PKCι (Homo sapiens, UniProt P41743) (assay: PKCι IC50 IMAP assay, full-length PKCι at 150 μM ATP). Settings: read-out: IC50 in IMAP assay against full length PKCi at 150 μM ATP.
T1 construct: Recombinant, full-length human PKCι expressed in Sf21 insect cells is also commercially available; purchased; host or cells: Sf21 insect cells
T1 sequence (P41743 1-596): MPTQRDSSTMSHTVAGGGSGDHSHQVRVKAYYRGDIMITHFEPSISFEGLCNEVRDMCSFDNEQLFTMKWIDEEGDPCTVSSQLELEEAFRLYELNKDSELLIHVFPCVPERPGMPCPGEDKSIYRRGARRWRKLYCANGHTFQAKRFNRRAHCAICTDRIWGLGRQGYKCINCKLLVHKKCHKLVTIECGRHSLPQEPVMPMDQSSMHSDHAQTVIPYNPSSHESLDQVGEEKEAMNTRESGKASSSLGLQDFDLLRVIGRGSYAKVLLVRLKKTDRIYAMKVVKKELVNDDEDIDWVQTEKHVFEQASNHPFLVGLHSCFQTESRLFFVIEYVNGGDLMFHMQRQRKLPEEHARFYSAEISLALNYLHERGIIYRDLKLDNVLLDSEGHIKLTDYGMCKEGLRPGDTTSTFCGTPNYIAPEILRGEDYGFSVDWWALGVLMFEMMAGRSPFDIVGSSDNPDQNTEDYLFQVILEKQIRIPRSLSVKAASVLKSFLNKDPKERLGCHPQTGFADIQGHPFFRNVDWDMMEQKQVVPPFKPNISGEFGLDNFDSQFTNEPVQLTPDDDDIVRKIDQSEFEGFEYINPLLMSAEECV
Assay type: biochemical
In short: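 Dose-response IC50 values come from IMAP fluorescence polarisation after 60 min room-temperature turnover of 100 nM FAM peptide by ~15 pM insect-cell-expressed full-length PKCι at 150 μM ATP (5× KM^APP), normalised to no-compound and no-enzyme controls.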

SMILES	pIC50
N#Cc1ccc(Nc2cc(-c3nc(N4CCNCC4)c4c(Cl)cncc4n3)ccn2)cn1 [Example 260, 5-[4-(5-Chloro-4-piperazin-1-yl-pyrido[3,4-d]pyrimidin-2-yl)-pyridin-2-ylamino]-pyridine-2-carbonitrile]	4.40 to 5.00
Fc1ccc(F)c(Nc2cc(-c3nc(N4CCNCC4)c4c(Nc5c(F)ccc(F)c5F)cncc4n3)ccn2)c1F [Example 261, {4-Piperazin-1-yl-2-[2-(2,3,6-trifluoro-phenylamino)-pyridin-4-yl]-pyrido[3,4-d]pyrimidin-5-yl}-(2,3,6-trifluoro-phenyl)-amine]	6.00 to 7.00
Fc1ccccc1Nc1cc(-c2nc(N3CCNCC3)c3c(C4CC4)cncc3n2)ccn1 [Example 263, [4-(5-Cyclopropyl-4-piperazin-1-yl-pyrido[3,4-d]pyrimidin-2-yl)-pyridin-2-yl]-(2-fluoro-phenyl)-amine]	> 7.00
Fc1ccc(F)c(Nc2cc(-c3nc(N4CCNCC4)c4c(C5CC5)cncc4n3)ccn2)c1F [Example 266, [4-(5-Cyclopropyl-4-piperazin-1-yl-pyrido[3,4-d]pyrimidin-2-yl)-pyridin-2-yl]-(2,3,6-trifluoro-phenyl)-amine]	> 7.00
Fc1cccc(Nc2cc(-c3nc(N4CCNC(C(F)(F)F)C4)c4c(C5CC5)cncc4n3)ccn2)n1 (stereo not drawn) [Example 268, {4-[5-Cyclopropyl-4-(3-trifluoromethyl-piperazin-1-yl)-pyrido[3,4-d]pyrimidin-2-yl]-pyridin-2-yl}-(6-fluoro-pyridin-2-yl)-amine]	6.00 to 7.00
FC(F)(F)c1ccc(Nc2cc(-c3nc(N4CCNCC4)c4c(C5CC5)cncc4n3)ccn2)cn1 [Example 270, [4-(5-Cyclopropyl-4-piperazin-1-yl-pyrido[3,4-d]pyrimidin-2-yl)-pyridin-2-yl]-(6-trifluoromethyl-pyridin-3-yl)-amine]	6.00 to 7.00
c1ccc(Nc2cc(-c3nc(N4CCN[C@@H](C5CC5)C4)c4c(C5CC5)cncc4n3)ccn2)cc1 [Example 273, {4-[5-Cyclopropyl-4-((S)-3-cyclopropyl-piperazin-1-yl)-pyrido[3,4-d]pyrimidin-2-yl]-pyridin-2-yl}-phenyl-amine]	> 7.00
OC1CCN(c2nc(-c3ccnc(Nc4ccccc4F)c3)nc3cncc(C4CC4)c23)CC1 [Example 274, 1-{5-Cyclopropyl-2-[2-(2-fluoro-phenylamino)-pyridin-4-yl]-pyrido[3,4-d]pyrimidin-4-yl}-piperidin-4-ol]	6.00 to 7.00
Fc1ccccc1Nc1cc(-c2nc(N3CCN[C@@H](C4CC4)C3)c3c(C4CC4)cncc3n2)ccn1 [Example 276, {4-[5-Cyclopropyl-4-((S)-3-cyclopropyl-piperazin-1-yl)-pyrido[3,4-d]pyrimidin-2-yl]-pyridin-2-yl}-(2 fluoro-phenyl)-amine]	> 7.00
CC(F)(F)C1CN(c2nc(-c3ccnc(Nc4ccccc4)c3)nc3cncc(C4CC4)c23)CCN1 (stereo not drawn) [Example 278, (4-{5-Cyclopropyl-4-[3-(1,1-difluoro-ethyl)-piperazin-1-yl]-pyrido[3,4-d]pyrimidin-2-yl}-pyridin-2-yl)-phenyl-amine]	4.40 to 5.00
c1cc(-c2nc(N3CCNCC3)c3c(C4CC4)cncc3n2)cc(NC2CCOCC2)n1 [Example 283, [4-(5-Cyclopropyl-4-piperazin-1-yl-pyrido[3,4-d]pyrimidin-2-yl)-pyridin-2-yl]-(tetrahydro-pyran-4-yl)-amine]	> 7.00
c1cc(-c2nc(N3CCNCC3)c3c(C4CC4)cncc3n2)cc(NC23CC4CC(CC(C4)C2)C3)n1 [Example 285, Adamantan-1-yl-[4-(5-cyclopropyl-4-piperazin-1-yl-pyrido[3,4-d]pyrimidin-2-yl)-pyridin-2-yl]-amine]	> 7.00
NC(=O)c1ccc(Nc2cc(-c3nc(N[C@@H]4CCNC4)c4ccncc4n3)ccn2)cc1 [Example 304, 4-{4-[4-((R)-Pyrrolidin-3-ylamino)-pyrido[3,4-d]pyrimidin-2-yl]-pyridin-2-ylamino}-benzamide]	6.00 to 7.00

More lines, now with the values ahead:

pIC50	SMILES
> 7.00	FC(F)(F)c1ccnc(Nc2cc(-c3nc(N4CCNCC4)c4c(Cl)cncc4n3)ccn2)c1 [Example 259, [4-(5-Chloro-4-piperazin-1-yl-pyrido[3,4-d]pyrimidin-2-yl)-pyridin-2-yl]-(4-trifluoromethyl-pyridin-2-yl)-amine]
> 7.00	Fc1cccc(F)c1Nc1cc(-c2nc(N3CCNCC3)c3c(C4CC4)cncc3n2)ccn1 [Example 264, [4-(5-Cyclopropyl-4-piperazin-1-yl-pyrido[3,4-d]pyrimidin-2-yl)-pyridin-2-yl]-(2,6-difluoro-phenyl)-amine]
> 7.00	N#Cc1ccnc(Nc2cc(-c3nc(N4CCNCC4)c4c(C5CC5)cncc4n3)ccn2)c1 [Example 265, 2-[4-(5-Cyclopropyl-4-piperazin-1-yl-pyrido[3,4-d]pyrimidin-2-yl)-pyridin-2-ylamino]-isonicotinonitrile]
> 7.00	Cc1ccnc(Nc2cc(-c3nc(N4CCNCC4)c4c(C5CC5)cncc4n3)ccn2)c1 [Example 267, [4-(5-Cyclopropyl-4-piperazin-1-yl-pyrido[3,4-d]pyrimidin-2-yl)-pyridin-2-yl]-(4-methyl-pyridin-2-yl)-amine]
> 7.00	FC(F)(F)c1ccnc(Nc2cc(-c3nc(N4CCNCC4)c4c(C5CC5)cncc4n3)ccn2)c1 [Example 269, [4-(5-Cyclopropyl-4-piperazin-1-yl-pyrido[3,4-d]pyrimidin-2-yl)-pyridin-2-yl]-(4-trifluoromethyl-pyridin-2-yl)-amine]
> 7.00	Fc1ccc(Nc2cc(-c3nc(N4CCNCC4)c4c(C5CC5)cncc4n3)ccn2)nc1 [Example 271, [4-(5-Cyclopropyl-4-piperazin-1-yl-pyrido[3,4-d]pyrimidin-2-yl)-pyridin-2-yl]-(5-fluoro-pyridin-2-yl)-amine]
> 7.00	Cc1nc(Nc2cc(-c3nc(N4CCNCC4)c4c(C5CC5)cncc4n3)ccn2)oc1C [Example 272, [4-(5-Cyclopropyl-4-piperazin-1-yl-pyrido[3,4-d]pyrimidin-2-yl)-pyridin-2-yl]-(4,5-dimethyl-oxazol-2-yl)-amine]
> 7.00	CC(C)[C@H]1CN(c2nc(-c3ccnc(Nc4ccccc4)c3)nc3cncc(C4CC4)c23)CCN1 [Example 275, {4-[5-Cyclopropyl-4-((S)-3-isopropyl-piperazin-1-yl)-pyrido[3,4-d]pyrimidin-2-yl]-pyridin-2-yl}-phenyl-amine]
> 7.00	Fc1cccc(Nc2cc(-c3nc(N4CCN[C@@H](C5CC5)C4)c4c(C5CC5)cncc4n3)ccn2)n1 [Example 277, {4-[5-Cyclopropyl-4-((S)-3-cyclopropyl-piperazin-1-yl)-pyrido[3,4-d]pyrimidin-2-yl]-pyridin-2-yl}-(6-fluoro-pyridin-2-yl)-amine]
> 7.00	c1ccc(Nc2cc(-c3nc(N4CCNCC4)c4c(C5CC5)cncc4n3)ccn2)cc1 [Example 279, [4-(5-Cyclopropyl-4-piperazin-1-yl-pyrido[3,4-d]pyrimidin-2-yl)-pyridin-2-yl]-phenyl-amine]
> 7.00	N#CC[C@H]1CN(c2nc(-c3ccnc(Nc4ccccc4)c3)nc3cncc(C4CC4)c23)CCN1 [Example 280, {(S)-4-[5-Cyclopropyl-2-(2-phenylamino-pyridin-4-yl)-pyrido[3,4-d]pyrimidin-4-yl]-piperazin-2-yl}-acetonitrile]
> 7.00	c1cc(-c2nc(N3CCNCC3)c3c(C4CC4)cncc3n2)cc(NC2CCCC2)n1 [Example 281, Cyclopentyl-[4-(5-cyclopropyl-4-piperazin-1-yl-pyrido[3,4-d]pyrimidin-2-yl)-pyridin-2-yl]-amine]
> 7.00	c1cc(-c2nc(N3CCNCC3)c3c(C4CC4)cncc3n2)cc(NC2CCCCC2)n1 [Example 282, Cyclohexyl-[4-(5-cyclopropyl-4-piperazin-1-yl-pyrido[3,4-d]pyrimidin-2-yl)-pyridin-2-yl]-amine]
6.00 to 7.00	FC(F)(F)C1CN(c2nc(-c3ccnc(NC4CCCC4)c3)nc3cncc(C4CC4)c23)CCN1 (stereo not drawn) [Example 284, Cyclopentyl-{4-[5-cyclopropyl-4-(3-trifluoromethyl-piperazin-1-yl)-pyrido[3,4-d]pyrimidin-2-yl]-pyridin-2-yl}-amine]
6.00 to 7.00	Nc1ccccc1C(=O)Nc1cc(-c2nc(N[C@@H]3CCNC3)c3ccncc3n2)ccn1 [Example 303, 2-Amino-N-{4-[4-((R)-pyrrolidin-3-ylamino)-pyrido[3,4-d]pyrimidin-2-yl]-pyridin-2-yl}-benzamide]
6.00 to 7.00	Nc1ccc(C(=O)Nc2cc(-c3nc(N[C@@H]4CCNC4)c4ccncc4n3)ccn2)cc1 [Example 305, 4-Amino-N-{4-[4-((R)-pyrrolidin-3-ylamino)-pyrido[3,4-d]pyrimidin-2-yl]-pyridin-2-yl}-benzamide]
5.00 to 6.00	c1ccc(Nc2cc(-c3nc(N4C[C@@H]5C[C@H]4CN5)c4ccncc4n3)ccn2)cc1 [Example 306, {4-[(1S,4S)-4-(2,5-Diaza-bicyclo[2.2.1]hept-2-yl)-pyrido[3,4-d]pyrimidin-2-yl]-pyridin-2-yl}-phenyl-amine]
